Data reported in US6503881B2 (priority 1996, dated 2003).
Converted amounts (≈) assume the structure as drawn. Like-named read-outs stand apart in the source and are kept apart here. Peptide text beside a SMILES is read from it.

Key:
[1] = system: microorganisms with acquired resistance; experiment: microbe, parasite or virus in culture
P. aeruginosa = assay type: cell-based
[2] = system: inherently resistant microorganisms
bacterial isolates = settings: for PIC: with Gentamicin
[3] = system: microorganisms with acquired resistance
[4] = assay type: biochemical
E. coli strain ML-35 = assay type: cell-based; settings: for ONPG hydrolysis diminished: cells pre-incubated with vancomycin, compared to no pre-incubation
[5] = system: MSSA (Smith, ATCC #19640); assay type: in vivo, S. aureus; settings: formulation D
[6] = system: S. epidermidis (ATCC #12228); settings: in vivo, iv
MRSA (ATCC #33591) = assay type: in vivo, S. aureus; settings: for Percentage of Animals Surviving, Treatment: MRSA ip infection in mice, iv in formulation D, protocol not named in table (1 mg/kg (20 min)); for survival: iv
[7] = S. aureus SA25 (Ciprofloxacin section)
[8] = S. aureus MRSA 13, pair Mupirocin / MBI 10CN
[9] = S. aureus MRSA 17, pair Mupirocin / MBI 10CN, first line
[10] = E. coli ATCC 25922, agarose dilution assay
[11] = E. coli NCTC 10418, agarose dilution assay
[12] = E. faecium ATCC 29212, agarose dilution assay
[13] = P. aeruginosa ATCC 27853, agarose dilution assay
[14] = P. aeruginosa NCTC 10662, agarose dilution assay
[15] = S. aureus MRSA9, agarose dilution assay
[16] = S. aureus MRSA13, agarose dilution assay
[17] = S. aureus MRSA17, agarose dilution assay
[18] = S. marcescens SM82, agarose dilution assay
[19] = S. pneumoniae 406LE8, agarose dilution assay
[20] = S. pneumoniae 60120, agarose dilution assay
[21] = S. pneumoniae ATCC 49619, agarose dilution assay
[22] = S. maltophilia SMA018, pair Amikacin / MBI 21A2

## CC1(C)S[C@@H]2[C@H](NC(=O)[C@H](N)c3ccccc3)C(=O)N2[C@H]1C(=O)O [Ampicillin]
[1]; Staphylococcus haemolyticus, read-out: MIC alone, S. haemolyticus SH8459, pair Ampicillin / MBI 26
  MIC: 0.5 µg/mL (≈ 1.43 µM)
[1]; Staphylococcus haemolyticus, read-out: MIC alone, S. haemolyticus SH8564, pair Ampicillin / MBI 26
  MIC: 64 µg/mL (≈ 183 µM)
[1]; Staphylococcus haemolyticus, read-out: MIC alone, S. haemolyticus SH8575, pair Ampicillin / MBI 26
  MIC: 0.5 µg/mL (≈ 1.43 µM)
[1]; Staphylococcus haemolyticus, read-out: MIC alone, S. haemolyticus SH8578, pair Ampicillin / MBI 26
  MIC: 0.5 µg/mL (≈ 1.43 µM)

## CO/N=C(\C(=O)N[C@@H]1C(=O)N2C(C(=O)O)=C(CSc3nc(=O)c(=O)[nH]n3C)CS[C@H]12)c1csc(N)n1 [Ceftriaxone]
P. aeruginosa; P. aeruginosa PA008, pair Ceftriaxone / MBI 26
  MIC in combination: 8 µg/mL
P. aeruginosa; P. aeruginosa PA039, pair Ceftriaxone / MBI 11J02CN
  MIC in combination: 1 µg/mL
[2]; S. maltophilia SMA021, pair Ceftriaxone / MBI 11B7CN
  MIC in combination: 1 µg/mL
[2]; S. maltophilia SMA021, pair Ceftriaxone / MBI 26
  MIC in combination: 1 µg/mL
[2]; S. maltophilia SMA023, pair Ceftriaxone / MBI 11B7CN
  MIC in combination: 8 µg/mL

## CC[C@H](C)[C@H](NC(=O)[C@H](C)NC(=O)[C@@H]1CCCN1C(=O)CNC(=O)[C@H](C)NC(=O)[C@@H](NC(=O)[C@H](CCCCN)NC(=O)[C@H](CC(C)C)NC(=O)CNC(=O)[C@H](CO)NC(=O)[C@H](CC(C)C)NC(=O)[C@@H](NC(=O)[C@H](CCCNC(=N)N)NC(=O)[C@H](CCCNC(=N)N)NC(=O)[C@H](Cc1c[nH]c2ccccc12)NC(=O)[C@H](Cc1c[nH]c2ccccc12)NC(=O)[C@H](CCCCN)NC(=O)[C@@H](N)CCCCN)C(C)C)[C@@H](C)O)C(=O)N[C@@H](CCC(N)=O)C(=O)N[C@@H](CO)C(=O)N[C@H](C(=O)N[C@@H](CC(C)C)C(=O)N[C@@H](CC(N)=O)C(=O)N[C@@H](CCCCN)C(=O)O)C(C)C [MBI 21A1, KKWWRRVLSGLKTAGPAIQSVLNK] (H-KKWWRRVLSGLKTAGPAIQSVLNK-OH; N-terminus and C-terminus assumed)
Bacterial isolates; [7]
  Peptide MI Alone: 32 µg/mL
[2]; S. aureus SA014 MRSA, pair Tobramycin / MBI 21A1
  MIC in combination: 16 µg/mL

## COc1cccc(OC)c1C(=O)N[C@@H]1C(=O)N2[C@@H]1SC(C)(C)[C@@H]2C(=O)O [Methicillin]
[3]; S. aureus SA7796, pair Methicillin / MBI 31
  MIC comb.: 2 µg/mL (≈ 5.26 µM)
[3]; S. aureus SA7797, pair Methicillin / MBI 31
  MIC comb.: 2 µg/mL (≈ 5.26 µM)
[3]; S. aureus SA7818, pair Methicillin / MBI 26
  MIC comb.: 4 µg/mL (≈ 10.5 µM)
[3]; S. aureus SA7823, pair Methicillin / MBI 31
  MIC comb.: 2 µg/mL (≈ 5.26 µM)
[3]; S. aureus SA7834, pair Methicillin / MBI 26
  MIC comb.: 8 µg/mL (≈ 21 µM)
[3]; S. aureus SA7834, pair Methicillin / MBI 31
  MIC comb.: 1 µg/mL (≈ 2.63 µM)
[3]; S. aureus SA7835, pair Methicillin / MBI 26
  MIC comb.: 4 µg/mL (≈ 10.5 µM)
[3]; S. aureus SA7835, pair Methicillin / MBI 31
  MIC comb.: 2 µg/mL (≈ 5.26 µM)
[1]; Staphylococcus aureus, read-out: MIC alone, S. aureus SA7796, pair Methicillin / MBI 31
  MIC: 16 µg/mL (≈ 42.1 µM)
[1]; Staphylococcus aureus, read-out: MIC alone, S. aureus SA7797, pair Methicillin / MBI 31
  MIC: 16 µg/mL (≈ 42.1 µM)
[1]; Staphylococcus aureus, read-out: MIC alone, S. aureus SA7818, pair Methicillin / MBI 26
  MIC: 16 µg/mL (≈ 42.1 µM)
[1]; Staphylococcus aureus, read-out: MIC alone, S. aureus SA7823, pair Methicillin / MBI 31
  MIC: 16 µg/mL (≈ 42.1 µM)
[1]; Staphylococcus aureus, read-out: MIC alone, S. aureus SA7834, pair Methicillin / MBI 26
  MIC: 32 µg/mL (≈ 84.1 µM)
[1]; Staphylococcus aureus, read-out: MIC alone, S. aureus SA7834, pair Methicillin / MBI 31
  MIC: 64 µg/mL (≈ 168 µM)
[1]; Staphylococcus aureus, read-out: MIC alone, S. aureus SA7835, pair Methicillin / MBI 26
  MIC: 32 µg/mL (≈ 84.1 µM)
[1]; Staphylococcus aureus, read-out: MIC alone, S. aureus SA7835, pair Methicillin / MBI 31
  MIC: 64 µg/mL (≈ 168 µM)

## C/C(=C\C(=O)OCCCCCCCCC(=O)O)C[C@@H]1OC[C@H](C[C@@H]2O[C@H]2[C@@H](C)[C@H](C)O)[C@@H](O)[C@H]1O [Mupirocin]
P. aeruginosa; P. aeruginosa PA2, pair Mupirocin / MBI 27
  MIC in combination: 0.1 µg/mL
P. aeruginosa; P. aeruginosa PA2, pair Mupirocin / MBI 29A3
  MIC in combination: 0.1 µg/mL
P. aeruginosa; P. aeruginosa PA3, pair Mupirocin / MBI 29A3
  MIC in combination: 0.1 µg/mL
P. aeruginosa; P. aeruginosa PA4, pair Mupirocin / MBI 27
  MIC in combination: 0.3 µg/mL
P. aeruginosa; P. aeruginosa PA4, pair Mupirocin / MBI 29A3
  MIC in combination: 0.1 µg/mL
P. aeruginosa; P. aeruginosa SBPA2, pair Mupirocin / MBI 29A3
  MIC in combination: 0.1 µg/mL
[2]; E. coli SBECO1, pair Mupirocin / MBI 28
  MIC in combination: 0.1 µg/mL
[3]; [8]
  MIC comb.: 3 µg/mL (≈ 5.99 µM)
[3]; [9]
  MIC comb.: 1 µg/mL (≈ 2 µM)
[3]; S. aureus MRSA 17, pair Mupirocin / MBI 11G13CN
  MIC comb.: 1 µg/mL (≈ 2 µM)

## NC[C@H]1O[C@H](O[C@H]2[C@H](O)[C@@H](O[C@H]3O[C@H](CO)[C@@H](O)[C@H](N)[C@H]3O)[C@H](N)C[C@@H]2N)[C@H](N)C[C@@H]1O [Tobramycin]
[3]; S. maltophilia 037, pair Tobramycin / MBI 29
  MIC comb.: 4 µg/mL (≈ 8.56 µM)
[1]; Stenotrophomonas maltophilia, read-out: MIC alone, S. maltophilia 041, pair Tobramycin / MBI 29
  MIC: 16 µg/mL (≈ 34.2 µM)

## I L K K W P W W P W R R K [MBI 11CN]
[4]
  membrane permeabilizing activity (ANTS/DPX dye release): virtually abolishes membrane permeabilizing activity
E. coli strain ML-35
  ONPG hydrolysis diminished: approximately 50%
[5]; ip 35.7 mg/kg, 60 minutes post-infection, 8 days
  survival (mice rescued): 100%
[5]; ip below 35.7 mg/kg
  activity at lower dose levels: little or no activity
[6]
  survival of mice: prolongs the survival of the mice
MRSA (ATCC #33591); 6 hours post-infection
  Percentage of Animals Surviving, Treatment: 70%
MRSA (ATCC #33591); 10 hours post-infection
  Percentage of Animals Surviving, Treatment: 30%
MRSA (ATCC #33591); 1 mg/kg (20 min) protocol, injections 5 minutes apart
  survival: delayed the death of the mice to a significant extent
MRSA (ATCC #33591); 5 mg/kg and 1 mg/kg (2 hr) protocols, injections 1 hour apart
  survival: no improvement in survivability over the negative control
bacteria; [10]
  MIC: 16 µg/mL
bacteria; [11]
  MIC: 4 µg/mL
bacteria; [12]
  MIC: 8 µg/mL
bacteria; [13]
  MIC: >128 µg/mL
bacteria; [14]
  MIC: >128 µg/mL
bacteria; [15]
  MIC: 2 µg/mL
bacteria; [16]
  MIC: 16 µg/mL
bacteria; [17]
  MIC: 4 µg/mL
bacteria; [18]
  MIC: >128 µg/mL
bacteria; [19]
  MIC: >128 µg/mL
bacteria; [20]
  MIC: >128 µg/mL
bacteria; [21]
  MIC: 64 µg/mL
[3]; peptide + Tobramycin, S. maltophilia SMA030
  FIC: 9.27

## I L P W K W P W W P W R R [MBI 10CN]
E. coli strain ML-35
  ONPG hydrolysis diminished: approximately 50%
bacteria; A. calcoaceticus AC001
  MIC: 64 µg/mL
bacteria; E. cloacae ECL007
  MIC: >128 µg/mL
bacteria; [10]
  MIC: 16 µg/mL
bacteria; E. coli ECO001
  MIC: 32 µg/mL
bacteria; [11]
  MIC: 8 µg/mL
bacteria; E. coli SBECO2
  MIC: 16 µg/mL
bacteria; E. faecalis EFS004
  MIC: 8 µg/mL
bacteria; [12]
  MIC: 4 µg/mL
bacteria; E. faecium EFM003
  MIC: 2 µg/mL
bacteria; K. pneumoniae KP002
  MIC: 64 µg/mL
bacteria; [13]
  MIC: >128 µg/mL
bacteria; [14]
  MIC: >128 µg/mL
bacteria; P. aeruginosa PA002
  MIC: >128 µg/mL
bacteria; [15]
  MIC: 1 µg/mL
bacteria; [16]
  MIC: 4 µg/mL
bacteria; [17]
  MIC: 2 µg/mL
bacteria; S. aureus SA003
  MIC: 2 µg/mL
bacteria; S. epidermidis SE010
  MIC: 4 µg/mL
bacteria; S. maltophilia SMA002
  MIC: 64 µg/mL
bacteria; [18]
  MIC: >128 µg/mL
bacteria; S. marcescens SMS004
  MIC: >128 µg/mL
bacteria; [19]
  MIC: >128 µg/mL
bacteria; [20]
  MIC: 64 µg/mL
bacteria; [21]
  MIC: 32 µg/mL
[3]; [8]
  Peptide MIC: 4 µg/mL
[3]; [9]
  Peptide MIC: 1 µg/mL
[3]; S. aureus MRSA 17, pair Mupirocin / MBI 10CN, second line
  Peptide MIC: 2 µg/mL

## I L R W P W W P W R R K [MBI 11B7CN]
P. aeruginosa; P. aeruginosa PA008, pair Ceftriaxone / MBI 11B7CN
  FIC: 9.50
E. coli strain ML-35; peptide pre-incubated with 150 mM NaCl or 5 mM Mg2+
  membrane permeabilizing activity: significant inhibition
Bacterial isolates; Piperacillin + peptide, S. aureus 19 MRSA
  FIC: 0.50
Bacterial isolates; S. aureus 19 MRSA
  Peptide MIC + Piperacillin: 1 µg/mL
  Peptide MIC Alone: 4 µg/mL
  Piperacillin MIC + Peptide: 32 µg/mL

## KKWWRRALQGLKTAGPAIQSVLNK [MBI 21A2]
[2]; [22]
  MIC Alone: 16 µg/mL
  MIC in combination: 8 µg/mL
[3]; antibiotic agents combined with the peptide
  acquired resistance of S. aureus to piperacillin and ciprofloxacin: overcome

## KWKSFIKKLTSAAKKVLTTGLPALIS [MBI 29A3]
Bacterial isolates; S. aureus SA10 (Ciprofloxacin section)
  Peptide MI Alone: 2 µg/mL
Bacterial isolates; [7]
  Peptide MI Alone: 1 µg/mL
Bacterial isolates; S. maltophilia SMA019
  PIC: 0.31
Bacterial isolates; S. maltophilia SMA021
  PIC: 0.31
[2]; S. maltophilia SMA063, pair Amikacin / MBI 29A3
  MIC in combination: 4 µg/mL
[2]; SMA036
  MIC Alone: 64 µg/mL
[2]; SMA063
  MIC Alone: 8 µg/mL
[3]; EFS014
  Peptide MIC Alone: 1 µg/mL
[3]; SA25
  Peptide MIC Alone: 1 µg/mL
